Test results taken from publication PMC10910475, “Synthesis and biological profile of 2,3-dihydro[1,3]thiazolo[4,5-b]pyridines, a novel class of acyl-ACP thioesterase inhibitors” (Beilstein Journal of Organic Chemistry, 2024).

The compounds below were run against T1, LpFAT A (FAT A from LEMPA; acyl-ACP thioesterase) (Lemna aequinoctialis, UniProt Z9A7P1QTQ5) (assay: fluorescence polarization competition with fluorescent tracer). Settings: 25 mM potassium phosphate pH 7.3, 200 mM NaCl, 0.01% Triton X-100, 2 nM tracer, room temperature; value is negative log.
T1 construct: chloroplast transit peptide replaced by N-terminal 6xHis-tag; pET24; E. coli BL21Star(DE3); Ni-NTA purified
T1 sequence (Z9A7P1QTQ5 10-320): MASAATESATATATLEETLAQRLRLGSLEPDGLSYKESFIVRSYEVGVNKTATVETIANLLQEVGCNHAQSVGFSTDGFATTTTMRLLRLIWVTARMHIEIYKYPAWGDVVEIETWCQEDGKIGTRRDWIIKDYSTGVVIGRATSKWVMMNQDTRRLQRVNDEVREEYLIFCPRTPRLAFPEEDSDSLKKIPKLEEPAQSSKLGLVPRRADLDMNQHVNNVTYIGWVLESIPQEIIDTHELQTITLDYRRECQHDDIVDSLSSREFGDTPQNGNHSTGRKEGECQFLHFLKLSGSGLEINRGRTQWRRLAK
Type: binding
Text: fluorescence polarization competition with fluorescent tracer on LpFAT A (FAT A from LEMPA; acyl-ACP thioesterase)

Q: `Fc1ccccc1-c1nc2c(cc1Br)SCN2` [13b, 6-bromo-5-(2-fluorophenyl)-2,3-dihydro[1,3]thiazolo[4,5-b]pyridine] was tested. Which pI50 did it give?
A: The pI50 was 7.3.

Q: `Cc1ccccc1COC1CC2(C(C)C)CCC1(C)O2` (centres unmarked) [compound 1, cinmethylin, reference compound] was tested. Which pI50 did it give?
A: The pI50 was 6.8.

Q: `CC(C)C(=O)N1CSc2cc(Br)c(-c3ccccc3F)nc21` [14b] was tested. Which pI50 did it give?
A: The pI50 was 4.7.

Q: How did the pI50 turn out when `CC(=O)N1CSc2cc(C)c(-c3ccccc3F)nc21` [16c, 1-[5-(2-fluorophenyl)-6-methyl[1,3]thiazolo[4,5-b]pyridin-3(2H)-yl]ethanone] was run?
A: The pI50 was 5.3.

Q: How did the pI50 turn out when `Cc1cc2c(nc1-c1ccccc1F)N(C(=O)C(C)C)CS2` [16d] was run?
A: The pI50 was 4.7.

Q: Which pI50 does the source give for `Cc1ccsc1C1=NOC(C)(COCc2c(F)cccc2F)C1` (centres unmarked) [compound 2, methiozolin, reference compound] here?
A: The pI50 was 7.1.

Q: `CC(=O)N1CSc2cc(Br)c(-c3ccccc3C)nc21` [14c] was tested. Which pI50 did it give?
A: Its pI50 is 4.3.

Q: `Cc1ccccc1-c1nc2c(cc1C)SCN2` [7c] was tested. Which pI50 did it give?
A: Its pI50 is 6.3.

Q: With `Cc1cc2c(nc1-c1ccccc1)NCS2` [7a] as the compound, how does the pI50 read?
A: Its pI50 is 5.9.

Q: How did the pI50 turn out when `Cc1ccccc1-c1nc2c(cc1C)SCN2C(=O)C(C)C` [16f] was run?
A: Its pI50 is 4.8.

Q: With `Cc1cc2c(nc1-c1ccccc1F)NCS2` [7b, 5-(2-Fluorophenyl)-6-methyl-2,3-dihydro[1,3]thiazolo[4,5-b]pyridine] as the compound, how does the pI50 read?
A: The pI50 was 6.1.

Q: With `CC(=O)N1CSc2cc(Br)c(-c3ccccc3)nc21` [14a] as the compound, how does the pI50 read?
A: The pI50 was 5.5.

Q: Which pI50 does the source give for `Cc1ccccc1-c1nc2c(cc1Br)SCN2` [13c, 6-bromo-5-(2-tolyl)-2,3-dihydrothiazolo[4,5-b]pyridine] here?
A: The pI50 was 4.5.

Q: For `Cc1cc2scnc2nc1-c1ccccc1F` [compound 5, 5-(2-fluorophenyl)-6-methyl[1,3]thiazolo[4,5-b]pyridine, reference compound], which pI50 is on record?
A: The pI50 was 7.2.

Q: Which pI50 does the source give for `Cc1ccccc1-c1nc2c(cc1Br)SCN2B1NB(N)N1` [17e, aminoborane 17e] here?
A: The pI50 was under 4.0.

Q: With `CC(=O)N1CSc2cc(C)c(-c3ccccc3)nc21` [16a] as the compound, how does the pI50 read?
A: Its pI50 is 5.5.

Q: Which pI50 does the source give for `Brc1cc2c(nc1-c1ccccc1)NCS2` [13a, 6-Bromo-5-phenyl-2,3-dihydrothiazolo[4,5-b]pyridine] here?
A: Its pI50 is 5.7.

Q: With `CC(=O)N1CSc2cc(C)c(-c3ccccc3C)nc21` [16e] as the compound, how does the pI50 read?
A: Its pI50 is 4.1.

Q: With `Cc1cc2c(nc1-c1ccccc1)N(C(=O)C(C)C)CS2` [16b] as the compound, how does the pI50 read?
A: The pI50 was 4.7.

Q: Which pI50 does the source give for `BN1CSc2cc(Br)c(-c3ccccc3C)nc21` [17d, aminoborane 17d] here?
A: The pI50 was 4.8.
